# Assay results taken from patent US11633377B2, “Treatment of circadian rhythm disorders” (Vanda Pharmaceuticals Inc., priority 2012, dated 2023).
# Where two headings read alike, the source gives them in different places.
# Key:
# [1] = Effect of fluvoxamine co-administration on tasimelteon pharmacokinetics; assay type: in vivo, human; conditions: for AUC: both sexes, human, in vivo
# Method: Twenty-four healthy male or female subjects between the ages of 18 and 55 years of age (inclusive) who were non-smokers with a body mass index (BMI) of 18 and 35 kg/m2 participated in this open-label, single-sequence study conducted at one site. On day 1, subjects were administered 5.667 mg of tasimelteon.
# [2] = Effect of smoking on concentration of tasimelteon and metabolites; assay type: in vivo, human
# From the text: Smokers were defined as those smoking 10 or more cigarettes per day. Non-smokers were defined as those smoking no cigarettes per day.
# Mel1b (MT2R) = molecular target: T1, Mel1b (MT2R) (Homo sapiens, UniProt P49286); experiment: Affinity (Ki) for melatonin receptor MT2R; assay type: binding; conditions: MT2R vs MT1R
# T1 sequence (P49286 1-362): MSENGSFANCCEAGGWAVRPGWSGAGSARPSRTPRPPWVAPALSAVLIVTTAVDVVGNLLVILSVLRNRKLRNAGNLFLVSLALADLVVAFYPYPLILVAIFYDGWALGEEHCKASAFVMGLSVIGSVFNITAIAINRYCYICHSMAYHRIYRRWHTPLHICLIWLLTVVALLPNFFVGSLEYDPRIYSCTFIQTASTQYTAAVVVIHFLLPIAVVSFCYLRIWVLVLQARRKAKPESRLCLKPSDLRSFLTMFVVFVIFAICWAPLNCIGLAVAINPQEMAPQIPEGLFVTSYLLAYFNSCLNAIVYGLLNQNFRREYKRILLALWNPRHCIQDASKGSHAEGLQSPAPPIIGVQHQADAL
# [3] = Solubility and pH of saturated solution; assay type: physicochemical
# patients with Non-24 = experiment: SET Study: Phase III randomized, double-masked, placebo-controlled study in Non-24; assay type: in vivo, human
# Method: Specifically, patients were orally administered 20 mg tasimelteon per day for at least 12 weeks prior to re-estimating tau. Patients were selected for randomization or open label based on baseline tau estimates. Drug was administered at about 1 hour prior to target sleep time, as determined by patients based on a 9 hour nighttime sleep period.
# The SET study was an 84 patient randomized, double-masked, placebo-controlled study in patients with Non-24. The primary endpoints for this study were Entrainment of the melatonin (aMT6s) rhythm to the 24-hour clock and Clinical Response as measured by Entrainment plus a score of greater than or equal to 3 on the following N24CRS:
# The SET study also assessed a number of secondary endpoints including Entrainment of cortisol rhythm and a broad range of clinical sleep and wake parameters. These parameters included improvement in the total nighttime sleep in the worst 25% of nights (LQ-nTST), decrease in the total daytime sleep duration in the worst 25% of days (UQ-dTSD) and midpoint of sleep timing (MoST) which is derived from a combination of the sleep reported for both nighttime and daytime. CGI-C is a seven-point rating scale of global functioning with lower scores indicating larger improvements.
# [4] = tested on: blind individuals with Non-24; experiment: RESET Study: randomized withdrawal study, maintenance of effect in Non-24; assay type: in vivo, human
# Method: Patients were treated with tasimelteon for at least twelve weeks during an open-label run-in phase during the SET Study. Patients who responded to tasimelteon treatment during the run-in phase were then randomized to receive either placebo or tasimelteon (20 mg/day) for 2 months.
# The primary endpoint of the RESET Study was the maintenance of effect as measured by entrainment of the melatonin (aMT6s) rhythm.
# The RESET study also assessed a number of secondary endpoints including maintenance of entrainment of the cortisol rhythm and a range of sleep and wake parameters including LQ-nTST (total nighttime sleep in the worst 25% of nights), UQ-dTSD (total daytime sleep duration in the worst 25% of days) and MoST (midpoint of sleep timing from both nighttime and daytime sleep).
# Non-24 patients = experiment: Entrainment by baseline peak aMT6s and beta blocker status (clinical studies); assay type: in vivo, human
# Method: Results of clinicalstudy also show a strong correlation between endogenous melatonin and efficacy of tasimelteon in entraining patients to a 24 hour circadian rhythm. The following table (Table 3A) compares the peak aMT6s levels in the 24 entrained and 23 non-entrained patients.
# Data from these studies currently available also indicate that beta blocker therapy is […] related to efficacy of tasimelteon, i.e., patients receiving beta blocker therapy were less likely to become entrained than patients who were not.
# [5] = tmax after administration; assay type: in vivo, human; conditions: tasimelteon
# [6] = Day 1: 5.667 mg tasimelteon alone
# [7] = Day 8 (with fluvoxamine) vs Day 1
# [8] = Day 8: 5.667 mg tasimelteon + 50 mg fluvoxamine
# [9] = fluvoxamine + tasimelteon vs tasimelteon alone
compound,measurement,setting,value
CCC(=O)NCC1CC1c1cccc2c1C(O)CO2 (centres unmarked) [M14],AUC (ml),[1]; [6],4.54 ± 2.39 ng·h/mL
same,"Geometric Mean Ratio, AUC",[1]; [7],944.73%
same,"Geometric Mean Ratio, Cmax",[1]; [7],264.58%
same,"Geometric Mean Ratio, t1/2",[1]; [7],243.34%
same,AUC (ml),[1]; [8],42.6 ± 27.3 ng·h/mL
same,"Geometric Mean Ratio, AUC (inf)",[2]; Smokers vs Non-Smokers,42.98%
same,"Geometric Mean Ratio, Cmax",[2]; Smokers vs Non-Smokers,60.17%
same,"Geometric Mean Ratio, t1/2",[2]; Smokers vs Non-Smokers,65.09%
CCC(=O)NCC1CC1c1cccc2c1CC(O)O2 (centres unmarked) [M13],AUC (ml),[1]; [6],106 ± 32.6 ng·h/mL
same,"Geometric Mean Ratio, AUC",[1]; [7],125.05%
same,"Geometric Mean Ratio, Cmax",[1]; [7],69.31%
same,"Geometric Mean Ratio, t1/2",[1]; [7],349.81%
same,AUC (ml),[1]; [8],133 ± 32.9 ng·h/mL
same,"Geometric Mean Ratio, AUC (inf)",[2]; Smokers vs Non-Smokers,97.31%
same,"Geometric Mean Ratio, Cmax",[2]; Smokers vs Non-Smokers,99.49%
same,"Geometric Mean Ratio, t1/2",[2]; Smokers vs Non-Smokers,77.51%
CCC(=O)NCC1CC1c1cccc2c1C(O)CO2 (centres unmarked) [M12],AUC (ml),[1]; [6],189 ± 90.8 ng·h/mL
same,"Geometric Mean Ratio, AUC",[1]; [7],274.81%
same,"Geometric Mean Ratio, Cmax",[1]; [7],92.74%
same,"Geometric Mean Ratio, t1/2",[1]; [7],241.02%
same,AUC (ml),[1]; [8],435 ± 109.3 ng·h/mL
same,"Geometric Mean Ratio, AUC (inf)",[2]; Smokers vs Non-Smokers,84.87%
same,"Geometric Mean Ratio, Cmax",[2]; Smokers vs Non-Smokers,115.53%
same,"Geometric Mean Ratio, t1/2",[2]; Smokers vs Non-Smokers,73.31%
"CCC(=O)NC[C@@H]1C[C@H]1c1cccc2c1CCO2 (relative stereo) [Tasimelteon, trans-N-[[2-(2,3-dihydrobenzofuran-4-yl)cycloprop-1yl]methyl]propanamide]",greater affinity for MT2R relative to MT1R,Mel1b (MT2R),2-4 times
same,native pH of a saturated solution in water,[3],8.5
same,Clinical Response 2 (Entrainment + N24CRS >=2),patients with Non-24; 20 mg/day oral,28.9%
same,Entrainment (aMT6s),patients with Non-24; 20 mg/day oral,20.0%
same,LQ-nTST (LS mean minutes),patients with Non-24; LS mean,57.0 min
same,CGI-C (LS mean minutes),"patients with Non-24; LS mean, smaller numbers indicate improvement",2.6 min
same,LQ-nTST and UQ-dTSD >=90 mm,patients with Non-24; only subjects with significant sleep and nap problems at baseline,23.8%
same,time to relapse analysis,"[4]; 45 min decrement of weekly average nighttime sleep, P=0.0907",placebo treated patients relapsed in higher numbers and at an earlier time than tasimelteon treated patients
same,Maintenance of entrainment (aMT6s),"[4]; RESET, 20 mg/day",90.0%
same,maintenance of entrainment (cortisol),"[4]; RESET, 20 mg/day",80.0%
same,"MoST (LS mean minutes), Difference","[4]; RESET, tasimelteon vs placebo",36.0 min
same,"maintenance of entrainment (cortisol), Difference","[4]; RESET, tasimelteon vs placebo",60.0%
same,"Entrained, number of patients",Non-24 patients,13
same,"Non-entrained, number of patients",Non-24 patients,21
same,"Entrained, % of patients",Non-24 patients; Peak aMT6s <1500 ng/hr,41%
same,"Entrained, number of patients",Non-24 patients; Peak aMT6s <1500 ng/hr,12
same,"Non-entrained, % of patients",Non-24 patients; Peak aMT6s <1500 ng/hr,59%
same,"Non-entrained, number of patients",Non-24 patients; Peak aMT6s <1500 ng/hr,17
same,"Entrained, % of patients",Non-24 patients; Peak aMT6s <12000 ng/hr,38%
same,"Non-entrained, % of patients",Non-24 patients; Peak aMT6s <12000 ng/hr,62%
same,"Entrained, % of patients",Non-24 patients; Peak aMT6s >1500 ng/hr,67%
same,"Entrained, number of patients",Non-24 patients; Peak aMT6s >1500 ng/hr,12
same,"Non-entrained, % of patients",Non-24 patients; Peak aMT6s >1500 ng/hr,33%
same,"Non-entrained, number of patients",Non-24 patients; Peak aMT6s >1500 ng/hr,6
same,"Entrained, % of patients",Non-24 patients; Peak aMT6s >2000 ng/hr,85%
same,"Entrained, number of patients",Non-24 patients; Peak aMT6s >2000 ng/hr,11
same,"Non-entrained, % of patients",Non-24 patients; Peak aMT6s >2000 ng/hr,15%
same,"Non-entrained, number of patients",Non-24 patients; Peak aMT6s >2000 ng/hr,2
same,"Entrained, % of patients",Non-24 patients; Peak aMT6s All,51%
same,"Entrained, number of patients",Non-24 patients; Peak aMT6s All,24
same,"Non-entrained, % of patients",Non-24 patients; Peak aMT6s All,49%
same,"Non-entrained, number of patients",Non-24 patients; Peak aMT6s All,23
same,"Entrained, number of patients",Non-24 patients; Taking Beta Blocker: No,24
same,"Non-entrained, number of patients",Non-24 patients; Taking Beta Blocker: No,19
same,"Entrained, number of patients",Non-24 patients; Taking Beta Blocker: Yes,0
same,"Non-entrained, number of patients",Non-24 patients; Taking Beta Blocker: Yes,4
same,"Geometric Mean Ratio, AUC",[1]; [7],653.36%
same,"Geometric Mean Ratio, CL/F",[1]; [7],15.31%
same,"Geometric Mean Ratio, Cmax",[1]; [7],232.74%
same,"Geometric Mean Ratio, t1/2",[1]; [7],211.82%
same,AUC,[1]; [6],102 ± 61.5 ng·h/mL
same,AUC)-inf increase upon co-administration of fluvoxamine,[1]; [9],approximately 7 fold
same,Cmax increase upon co-administration of fluvoxamine,[1]; [9],approximately 2 fold
same,CL/F,[2]; Non-Smokers,"1,482 ± 1,008 mL/mm"
same,CL/F,[2]; Smokers,"2,290 ± 1,232 mL/mm"
same,"Geometric Mean Ratio, AUC (inf)",[2]; Smokers vs Non-Smokers,60.14%
same,"Geometric Mean Ratio, CL/F",[2]; Smokers vs Non-Smokers,166.27%
same,"Geometric Mean Ratio, Cmax",[2]; Smokers vs Non-Smokers,63.98%
same,"Geometric Mean Ratio, Vz/F",[2]; Smokers vs Non-Smokers,144.39%
same,"Geometric Mean Ratio, t1/2",[2]; Smokers vs Non-Smokers,86.84%
same,tmax,[5],approximately one-half
CCC(=O)NC[C@@H]1C[C@H]1c1cccc(O)c1CC(=O)O [M9],"Geometric Mean Ratio, AUC",[1]; [7],122.56%
same,"Geometric Mean Ratio, Cmax",[1]; [7],64.94%
same,"Geometric Mean Ratio, t1/2",[1]; [7],328.02%
same,AUC,[1]; [6],104 ± 30 ng·h/mL
same,"Geometric Mean Ratio, AUC (inf)",[2]; Smokers vs Non-Smokers,74.36%
same,"Geometric Mean Ratio, Cmax",[2]; Smokers vs Non-Smokers,77.18%
same,"Geometric Mean Ratio, t1/2",[2]; Smokers vs Non-Smokers,85.40%
CCC(=O)NC[C@@H]1C[C@H]1c1cccc(O)c1CCO [M11],"Geometric Mean Ratio, AUC",[1]; [7],126.03%
same,"Geometric Mean Ratio, Cmax",[1]; [7],68.71%
same,"Geometric Mean Ratio, t1/2",[1]; [7],248.35%
same,AUC,[1]; [6],44.5 ± 17.2 ng·h/mL
same,"Geometric Mean Ratio, AUC (inf)",[2]; Smokers vs Non-Smokers,81.84%
same,"Geometric Mean Ratio, Cmax",[2]; Smokers vs Non-Smokers,84.50%
same,"Geometric Mean Ratio, t1/2",[2]; Smokers vs Non-Smokers,94.13%
